Source: US5780307A, “Immunosuppressive drug binding proteins and use” (priority 1996, dated 1998)
Where “and” joins values, the source holds several entries; their conditions need not be identical. Equal entries are not always repeated. Where two headings read alike, the source gives them in different places. Starred links: 1 amine or outer side, 2 acyl side, 3 side chain; linkers in the order of their positions; H or OH if unused. Residues, ends and D or L forms follow the SMILES beside them. *: point of attachment. pNA = O=[N+]([O-])c1ccc(N*)cc1; Suc = O=C(CCC(=O)[*:2])[*:1]

What was measured:
10-12 kDa immunophilin = experiment: Rotamase (peptidyl-prolyl cis-trans isomerase) assay, 10-12 kDa immunophilin; format: biochemical; design: key: no activity observed; conditions: rotamase activity with this peptide as substrate
Description: (§1) Rotamase activity (cis-trans peptidyl-prolyl isomerase activity) may be assayed in purified immunophilins using the methods of Fischer et al., Nature, 337:476 (1989) and Lange et al., Nature 4 331:453 (1988), which are incorporated herein by reference.
(§2) Only peptidyl propyl cis-trans isomerase activity to kobs values of greater than about 0.5 min^-1 are considered significant. Values below this are not considered to be due to the catalytic properties of the protein being analyzed.

[1] = system: calf thymus 50-54 kDa immunophilin; experiment: Rotamase (peptidyl-prolyl cis-trans isomerase) assay, 50-54 kDa immunophilin; format: biochemical; design: key: no activity observed; conditions: rotamase activity with this peptide as substrate
Description: as §1, §2

[2] = system: 34-37 kDa immunophilin (Jurkat cells); experiment: Radioreceptor assay / Scatchard analysis, purified 34-37 kDa immunophilin; format: binding
Description: Receptor density (Bmax), affinity (Kd) and Hill coefficients (nH) were obtained using EBDA and Ligand computer programs. Radioreceptor assay: The radioreceptor assay was done in a final volume of 250 μl. […] To assess total binding, 25 μL of 50 % ethanol alone was added to maintain a constant level of ethanol in the reaction. 100-150 μL of 5 mM phosphate buffer, pH 6.8, containing 0.2% Tween 20, was added. 2-5 μg protein solution in 50-100 μL was added to obtain a final reaction volume of 250 μL. Following a 20 minute incubation at 25° C. on a shaker, 200 μL of the reaction mixture was added to Sephadex LH-20 columns (Pharmacia Biotech, Piscataway, N.J., U.S.A.,1.8 mL bed volume) equilibrated with LH-20 assay buffer (20 mM Tris buffer, pH 7.2, 5 mM β-mercaptoethanol and 0.05% sodium azide).
SDS-PAGE electrophoresis: The protein from the gel filtration fraction was analyzed for purity using 10% SDS-PAGE electrophoresis in the presence and absence of mercaptoethanol and visualized using DAIICHI-II silver staining. […] The data were analyzed using EBDA and Ligand computer programs.

[3] = system: purified 50-54 kDa binding protein (JURKAT cells); experiment: Binding competition curves, purified 50-54 kDa binding protein, LH-20 separation
Description: Binding of [^3 H-dihydro]-FK506 to this protein was inhibited in a dose-dependent manner by rapamycin (B50 =0. 1 nM), whereas binding of [^3 H]-CSA to this protein was not affected by rapamycin at concentrations as high as 300 nM.

[4] = system: JURKAT cell cytosol protein fractions; experiment: Binding and competition in JURKAT cytosol protein fractions; design: competition for CsA binding to 16-18 kDa and 50-54 kDa fractions / inhibition of [3H-dihydro]-FK-506 binding in all fractions: unit of the concentration uncertain
Description: This fraction (3.02 mg in 2.7 mL) was then passed through a BioSil-125 HPLC column at a flow rate of 1.0 mL/minute of 10 mM phosphate buffer, pH 6.8. Those fractions around the expected molecular weight (around 50 kDa) were tested for binding to [^3 H]

[5] = system: 50-54 kDa binding protein (JURKAT cells)
Description: (§3) Association constants, specific binding activities, and numbers and types of binding sites can be obtained from Scatchard and Hill plots, using EBDA and LIGAND software.
(§4) Bound and free ligand were separated using the above-described LH-20 system.
(§5) The binding proteins purified in Example 5 were incubated with increasing amounts of labeled ligand and the binding data analyzed according to Scatchard.

[6] = biological target: 10-12 kDa binding protein (JURKAT cells) (Homo sapiens, UniProt P62942); conditions: Scatchard analysis, 10-12 kDa (8-12 kDa) protein
Sequence of 10-12 kDa binding protein (JURKAT cells) (P62942 whole entry): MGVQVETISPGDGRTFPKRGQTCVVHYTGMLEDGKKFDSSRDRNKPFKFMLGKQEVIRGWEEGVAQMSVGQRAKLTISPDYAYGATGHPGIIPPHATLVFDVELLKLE
Description: as §3, §5

[7] = system: 50-54 kDa binding protein (JURKAT cells); experiment: Scatchard / direct binding to purified 50-54 kDa immunophilin
Description: as §3, §4, §5

[8] = Storage stability of FK-506 in frozen blood; format: physicochemical; conditions: frozen (-20° C.) blood
Description: The competition-type PBA was conducted as follows. […] Following a 20-minute incubation at 25° C., 100 μL of a reaction mixture was added to a 1.8 mL bed volume Sephadex LH-20 column preequilibrated with 20 mM Tris buffer, pH 7.2-5 mM 2-mercaptoethanol-0.05% NaN3. Elution with five 250 μL portions of this buffer completely separated free from protein-bound radioligand. The protein-bound radioactivity in the 1.25 mL of eluate was measured in 10 mL Optima Gold Scintillation Cocktail (Packard Chemicals, Meriden, Conn.) in a liquid scintillation spectrometer operating at 59% counting efficiency. […] All analyses were performed in duplicate.

In the case of `C[C@H](NC(=O)CCC(=O)O)C(=O)N[C@@H](CCCCN)C(=O)N1CCC[C@H]1C(=O)N[C@@H](Cc1ccccc1)C(=O)Nc1ccc([N+](=O)[O-])cc1` [Suc--Ala--Lys--Pro--Phe--pNA], the “kobs, 10-12 kDa” value (10-12 kDa immunophilin) is reported as 0.36 min^-1 and the “kobs, 50-54 kDa” value [1] is reported as 0.004 s⁻¹.

With `C[C@H](NC(=O)CCC(=O)O)C(=O)N[C@@H](Cc1c[nH]c2ccccc12)C(=O)N1CCC[C@H]1C(=O)N[C@@H](Cc1ccccc1)C(=O)Nc1ccc([N+](=O)[O-])cc1` [Suc--Ala--Trp--Pro--Phe--pNA] (Suc-AWPF-pNA) the “kobs, 10-12 kDa” value (10-12 kDa immunophilin) was 0.21 min^-1 and the “kobs, 50-54 kDa” value [1] was 0.00233 s⁻¹.

With `C[C@H](NC(=O)CCC(=O)O)C(=O)N[C@@H](Cc1c[nH]cn1)C(=O)N1CCC[C@H]1C(=O)N[C@@H](Cc1ccccc1)C(=O)Nc1ccc([N+](=O)[O-])cc1` [Suc--Ala--His--Pro--Phe--pNA] (Suc-AHPF-pNA) the “kobs, 10-12 kDa” value (10-12 kDa immunophilin) was “a” and the “kobs, 50-54 kDa” value [1] was 0.001 s⁻¹.

For `CC(C)C[C@H](NC(=O)[C@@H]1CCCN1C(=O)[C@H](C)NC(=O)[C@H](C)NC(=O)CCC(=O)O)C(=O)Nc1ccc([N+](=O)[O-])cc1` [Suc--Ala--Ala--Pro--Leu--pNA] (Suc-AAPL-pNA), the “kobs, 10-12 kDa” value (10-12 kDa immunophilin) was 0.93 min^-1 and the “kobs, 50-54 kDa” value [1] was 0.0075 s⁻¹.

For `C[C@H](NC(=O)CCC(=O)O)C(=O)N[C@@H](Cc1ccccc1)C(=O)N1CCC[C@H]1C(=O)N[C@@H](Cc1ccccc1)C(=O)Nc1ccc([N+](=O)[O-])cc1` [Suc--Ala--Phe--Pro--Phe--pNA], the “kobs, 10-12 kDa” value (10-12 kDa immunophilin) was 3.0 min^-1 and the “kobs, 50-54 kDa” value [1] was 0.003 s⁻¹.

In the case of `C[C@H](NC(=O)CCC(=O)O)C(=O)NCC(=O)N1CCC[C@H]1C(=O)N[C@@H](Cc1ccccc1)C(=O)Nc1ccc([N+](=O)[O-])cc1` [Suc--Ala--Gly--Pro--Phe--pNA] (Suc-AGPF-pNA), the “kobs, 10-12 kDa” value (10-12 kDa immunophilin) is reported as “a” and the “kobs, 50-54 kDa” value [1] is reported as 0.00667 s⁻¹.

In the case of `CCCC[C@H](NC(=O)[C@H](C)NC(=O)CCC(=O)O)C(=O)N1CCC[C@H]1C(=O)N[C@@H](Cc1ccccc1)C(=O)Nc1ccc([N+](=O)[O-])cc1` [Suc--Ala--Nle--Pro--Phe--pNA], the “kobs, 10-12 kDa” value (10-12 kDa immunophilin) is reported as 0.58 min^-1 and the “kobs, 50-54 kDa” value [1] is reported as 0.00417 s⁻¹.

In the case of `C[C@H](NC(=O)CCC(=O)O)C(=O)N[C@@H](CCC(=O)O)C(=O)N1CCC[C@H]1C(=O)N[C@@H](Cc1ccccc1)C(=O)Nc1ccc([N+](=O)[O-])cc1` [Suc--Ala--Glu--Pro--Phe--pNA] (Suc-AEPF-pNA), the “kobs, 10-12 kDa” value (10-12 kDa immunophilin) is reported as “a” and the “kobs, 50-54 kDa” value [1] is reported as “a”.

For `[3H]CC([3H])C[C@@H]1/C=C(\C)C[C@H](C)C[C@H](OC)[C@H]2O[C@@](O)(C(=O)C(=O)N3CCCC[C@H]3C(=O)O[C@H](/C(C)=C/[C@@H]3CC[C@@H](O)[C@H](OC)C3)[C@H](C)[C@@H](O)CC1=O)[C@H](C)C[C@@H]2OC` (stereo partly drawn) [tritiated dihydro FK506], the Hill coefficients ([2]; saturation experiments) was “near unity”.

For `C=CCC1C=C(C)CC(C)CC(OC)C2OC(O)(C(=O)C(=O)N3CCCCC3C(=O)OC(C(C)=CC3CCC(O)C(OC)C3)C(C)C(O)CC1=O)C(C)CC2OC` (stereo not drawn) [FK-506, tacrolimus], the “displacement of bound radioligand from the binding sites” value ([2]; 1 μM unlabelled drug, 20 min) was over 95%, the “inhibition of binding of [3H]-CsA to the 50-54 kDa protein” value ([3]; all concentrations tested) was “inhibited” and the “inhibition of binding of [3H]-CSA” value ([4]; isoelectric focusing fraction at pH 6.29) was “inhibited”. For the same compound, the Kd [5] was 1 to 10 nM and ~2 nM, the “binding capacity / specific binding activity” value [6] was “about 0.5 nmol/mg” and the “binding to purified 50-54 kDa binding protein” value [7] was “bound”. For the same compound, the “time without variability in assay results on storage” value [8] was “at least 30 days”.

For `CCC[C@@H]1/C=C(\C)C[C@H](C)C[C@H](OC)[C@H]2O[C@@](O)(C(=O)C(=O)N3CCCC[C@H]3C(=O)O[C@H](/C(C)=C/[C@@H]3CC[C@@H](O)[C@H](OC)C3)[C@H](C)[C@@H](O)CC1=O)[C@H](C)C[C@@H]2OC` [tritiated dihydro FK506], the Kd ([2]; saturation experiments, 0.25 to 20 nM) was 4.5 nM.

For `CC[C@H](C)[C@H](NC(=O)[C@H](C)NC(=O)CCC(=O)O)C(=O)N1CCC[C@H]1C(=O)N[C@@H](Cc1ccccc1)C(=O)Nc1ccc([N+](=O)[O-])cc1` [Suc--Ala--Ile--Pro--Phe--pNA] (Suc-AIPF-pNA), the “kobs, 10-12 kDa” value (10-12 kDa immunophilin) was 0.69 min^-1 and the “kobs, 50-54 kDa” value [1] was 0.00033 s⁻¹.

In the case of `O=C(O)CCC(=O)N[C@@H](Cc1ccccc1)C(=O)N1CCC[C@H]1C(=O)N[C@@H](Cc1ccccc1)C(=O)Nc1ccc([N+](=O)[O-])cc1` [Suc--Phe--Pro--Phe--pNA] (Suc-Phe-Pro-Phe-pNA), the “kobs, 10-12 kDa” value (10-12 kDa immunophilin) is reported as 0.63 min^-1 and the “kobs, 50-54 kDa” value [1] is reported as 0.001 s⁻¹.

For `CC(C)C[C@H](NC(=O)[C@H](C)NC(=O)CCC(=O)O)C(=O)N1CCC[C@H]1C(=O)N[C@@H](Cc1ccccc1)C(=O)Nc1ccc([N+](=O)[O-])cc1` [Suc--Ala--Leu--Pro--Phe--pNA] (Suc-ALPF-pNA), the “kobs, 10-12 kDa” value (10-12 kDa immunophilin) was 1.61 min^-1 and the “kobs, 50-54 kDa” value [1] was 0.00267 s⁻¹.

For `CO[C@H]1C[C@@H]2CC[C@@H](C)[C@@](O)(O2)C(=O)C(=O)N2CCCC[C@H]2C(=O)O[C@H]([C@H](C)C[C@@H]2CC[C@@H](O)[C@H](OC)C2)CC(=O)[C@H](C)/C=C(\C)[C@@H](O)[C@@H](OC)C(=O)[C@H](C)C[C@H](C)/C=C/C=C/C=C/1C` [rapamycin], the IC50 ([3]; 1.8 pmol [3H-dihydro]-FK-506, 15 minutes at 25° C., read-out: B50, inhibition of [3H-dihydro]-FK506 binding) was 0.1 nM, the “effect on binding of [3H]-CSA to the 50-54 kDa protein” value ([3]; concentrations as high as 300 nM) was “not affected” and the “inhibition of [3H-dihydro]-FK-506 binding in all fractions” value ([4]; 0.7 (unit uncertain)) was “inhibited”. The “competition for CsA binding to 16-18 kDa and 50-54 kDa fractions” value ([4]; 70 (unit uncertain)) was “did not compete”, the “binding to purified 50-54 kDa binding protein” value [7] was “bound” and the Kd ([7]; read-out: dissociation constant, 50-54 kDa protein, unit inferred) was 0.1 to 0.2 nM.

In the case of `C[C@H](NC(=O)CCC(=O)O)C(=O)N[C@@H](CCC(N)=O)C(=O)N1CCC[C@H]1C(=O)N[C@@H](Cc1ccccc1)C(=O)Nc1ccc([N+](=O)[O-])cc1` [Suc--Ala--Gln--Pro--Phe--pNA] (Suc-AQPF-pNA), the “kobs, 10-12 kDa” value (10-12 kDa immunophilin) is reported as 0.23 min^-1 and the “kobs, 50-54 kDa” value [1] is reported as 0.00367 s⁻¹.
